This is an account of results in PMC7697893, “Novel 1-Amidino-4-Phenylpiperazines as Potent Agonists at Human TAAR1 Receptor: Rational Design, Synthesis, Biological Evaluation and Molecular Docking Studies” (Pharmaceuticals, 2020).

The target of data set [1] is T1, hTAAR1 (Homo sapiens, UniProt Q96RJ0).
T1 construct: expressed in transfected cells; host or cells: HEK-293T (ATCC)
T1 sequence (Q96RJ0 1-339): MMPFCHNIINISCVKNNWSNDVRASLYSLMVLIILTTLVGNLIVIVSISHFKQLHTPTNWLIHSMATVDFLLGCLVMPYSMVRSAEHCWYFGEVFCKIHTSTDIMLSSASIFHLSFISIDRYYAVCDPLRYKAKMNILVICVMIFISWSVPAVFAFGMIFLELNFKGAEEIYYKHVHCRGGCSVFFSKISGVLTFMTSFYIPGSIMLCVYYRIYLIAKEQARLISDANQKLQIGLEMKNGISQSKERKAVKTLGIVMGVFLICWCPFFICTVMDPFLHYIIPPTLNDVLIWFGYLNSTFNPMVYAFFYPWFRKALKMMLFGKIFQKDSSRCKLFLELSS
Briefly: Functional activity at hTAAR1, cAMP BRET biosensor in HEK-293T cells. It counts as cell-based. As to conditions: for Emax at 10 µM: HEK-293T, read-out: hTAAR1 Activity; for EC50: dose–response 10 nM to 10 μM, means of 4 experiments, errors within 10%, read-out: hTAAR1 EC50. On the procedure:
The activity of the compounds was measured using human embryonic kidney 293 (HEK-293T) cells co-transfected with plasmids encoding hTAAR1 and a cAMP Bioluminescence Resonance Energy Transfer (BRET) biosensor, or empty vector as a control. TYR was used as a positive control for agonism. Firstly, all the compounds were tested at 10 μM either for agonistic or antagonistic activity.
BRET screening was described in detail elsewhere. HEK-293T (ATCC) cells were transiently сo-transfected with plasmids encoding hTAAR1 and a cAMP BRET biosensor using Lipofectamine® (ThermoFisher) reagent, and then plated in 96-well plates (Corning) at […] per well. On the following day, culture medium was removed and 70 μL of phosphate-buffered saline containing calcium and magnesium was added to each well, followed by the addition of 10 μL […] 3-isobutyl-1-methylxanthine solution (Sigma), and 10 μL 50 μM coelenterazine-h solution (Promega). All tested compounds were dissolved in DMSO to yield 10 mM stock solutions. After 10 min incubation, either 10 μL of vehicle or 10× of the concentrated solution of compound to be tested (10 μM final concentration) was added. Readings were collected using a Mithras LB943 multimodal plate reader (Berthold Technologies). The BRET signal is determined by calculating the ratio of the light emitted at 505 to 555 nm to the light emitted at 465 to 505 nm.
Curves were fitted by applying non-linear regression models on GraphPad Prism 6 (GraphPad Software).
A general note: In BRET a luciferase serves as donor, and the signal depends on an acceptor being close.

Data set [2] is described as follows: Cell cytotoxicity assay (MTT) on Vero-76 cells. It counts as cell-based, Cercopithecus Aethiops. As to conditions: Cercopithecus aethiops (African green monkey), Vero-76 cells; MTT method, 48–96 h; CC50±SEM. Here is the method: (§1) Vero-76 cells (ATCC CRL 1587 Cercopithecus Aethiops) were seeded at an initial density of 4 × 10^5 cells/mL in 24-well plates, in culture medium (Dulbecco’s Modified Eagle Medium (D-MEM) with L-glutamine, supplemented with fetal bovine serum (FBS), 0.025 g/L kanamycin). Cell cultures were then incubated at 37 °C in a humidified, 5% CO2 atmosphere in the absence or presence of serial dilutions of test compounds. Cell viability was determined after 48–96 h at 37 °C by the MTT staining method. The results are expressed as CC50, which is the concentration of compound necessary to inhibit cell growth by 50%. Each CC50 value is the mean and standard deviation of at least three separate experiments performed in duplicate.
(Formazan colour is commonly taken as a measure of viable cells.)

The test system of data set [3] is Vero-76 cells. Kind of data set: Cell cytotoxicity assay (MTT) on Vero-76 cells. It counts as cell-based, Cercopithecus Aethiops. As to conditions: ratio of Vero-76 CC50 to hTAAR1 EC50. Here is the method: as §1
On the set-up of data set [4]: method as in PMID 5169226. As to conditions: rats, intraperitoneal, 100 mg/kg; cited from earlier work.
Details of data set [5]: method as in PMID 5719030. Conditions: potentiating pressor effect of tyramine and NE; cited from earlier work.
The conditions of data set [6]: cited from earlier work.
For data set [7], the system named is human hepatocyte. As to conditions: cited from earlier work.

`Cl.N=C(N)N1CCN(c2ccccc2)CC1` [Compound 1, 4-Phenylpiperazine-1-carboximidamide hydrochloride] came in with a melting point of 214 to 217 °C. In addition, in data set [1], the Emax at 10 µM is 71% and the EC50 was found to be 0.37 µM. In data set [2], it took 84 ± 5 µM to reach half-maximal cytotoxicity (CC50). In addition, the “Therapeutic index (CC50/EC50)” value in data set [3] came out at 227. In addition, in data set [4], the “increase of the concentration of NE in the brain” value is given as “about 34.5%” and the “increase of the concentration of NE in the heart” value is on record as ~42.7%. The sympathomimetic effect entry in data set [5] is reported as “a rise in the blood pressure”.
Consider `Cl.N=C(N)N1CCN(c2cccc(Cl)c2)CC1` [Compound 4, 4-(3-Chlorophenyl)piperazine-1-carboximidamide hydrochloride], for which, in data set [1], the Emax at 10 µM came out at 35% and the EC50 is > 2 µM. Besides, in data set [2], the midpoint of cytotoxicity, the CC50, lay at 90 ± 3 µM. Also, in data set [3], the “Therapeutic index (CC50/EC50)” value is on record as 45. Besides, in data set [5], the sympathomimetic effect result is reported as “a rise in the blood pressure”.
For the molecule `Cc1c(F)cccc1[C@H]1COC(N)=N1` [RO5263397], the AMES/MNT test result in data set [6] is on record as “negative”. Further, the human hepatocyte clearance entry in data set [7] was “acceptable”.

By EC50 is commonly meant the concentration at which the effect is half-maximal. Broadly, the CC50 is the concentration giving 50% cytotoxicity. Low values mean harm at low concentration, high ones better tolerance by the cells. As a reminder, the melting point is the temperature of the solid-liquid transition.
